Values of other authors, collected in the PKSmart pharmacokinetics tables (Seal et al. 2025).

Test: Lombardo, Berellini, Obach 2018, Drug Metab Dispos 46:1466, doi 10.1124/dmd.118.082966
Settings: human; for MRT / Vd / clearance / half-life: in vivo, iv; for fraction unbound: plasma

SMILES	MRT	Vd	clearance	half-life	fraction unbound
CCCCCCC(C)(C)c1cc(O)c2c(c1)OC(C)(C)[C@H]1CC=C(CO)C[C@H]21	3.94 h	5.06 L/kg	21.4 mL/min/kg	7.33 h	
CC(=O)O[C@H]1C[C@@H]2CC[C@@H]3[C@H](CC[C@@]4(C)[C@H]3C[C@H](N3CC[N+](C)(C)CC3)[C@@H]4OC(C)=O)[C@@]2(C)C[C@@H]1N1CC[N+](C)(C)CC1	1.9 h	0.35 L/kg	3 mL/min/kg	1.9 h	0.98
COC(=O)C(c1ccccc1Cl)N1CCc2sccc2C1 (stereo not drawn)	1.42 h	2.01 L/kg	23.6 mL/min/kg	5.06 h	0.02
C[C@H]1CCc2c(N3CCC(O)CC3)c(F)cc3c(=O)c(C(=O)O)cn1c23	7.87 h	0.25 L/kg	0.54 mL/min/kg	6.04 h	
COCCn1c2c([n+](Cc3cnccn3)c1C)C(=O)c1ccccc1C2=O	34.5 h	23.7 L/kg	11.3 mL/min/kg	24.8 h	
C[C@@H](O)C1C(=O)N2C(C(=O)O)=C(SCCNC=N)C[C@H]12 (stereo partly drawn)	1.3 h		3 mL/min/kg	0.95 h	
COc1ccccc1Oc1c(NS(=O)(=O)c2ccc(C)cn2)nc(-c2ccncc2)nc1OC	8.8 h	0.27 L/kg	0.52 mL/min/kg	7.2 h	
NCCNc1ccc(NCCN)c2c1C(=O)c1ccncc1C2=O	8.9 h	10.1 L/kg	17.7 mL/min/kg	13.4 h	
CC(=O)OCC1=C(C(=O)O)N2C(=O)C(NC(=O)Cc3cccs3)[C@H]2SC1 (stereo partly drawn)	0.65 h	0.07 L/kg	1.8 mL/min/kg	0.95 h	0.22
Cn1c(CNc2ccc(C(=N)N)cc2)nc2cc(C(=O)N(CCC(=O)O)c3ccccn3)ccc21	7.4 h	0.85 L/kg	1.93 mL/min/kg	7.3 h	0.65
CNC(=O)Oc1ccc2c(c1)[C@@]1(C)CCN(C)[C@@H]1N2C	0.9 h	3.9 L/kg	72 mL/min/kg	1 h	0.64
COC(=O)C[C@@](O)(CCCC(C)(C)O)C(=O)O[C@@H]1C(OC)=C[C@]23CCCN2CCc2cc4c(cc2[C@H]13)OCO4	10.2 h	1.8 L/kg	2.96 mL/min/kg	9.8 h	
CN[C@@H]1C[C@H]2OC(C)([C@@H]1OC)n1c3ccccc3c3c4c(c5c6ccccc6n2c5c31)C(=O)N[C@@H]4O	680 h	0.15 L/kg	0.0037 mL/min/kg	790 h	0.0022
CCN(C)C(=O)Oc1cccc([C@H](C)N(C)C)c1	1.9 h	1.3 L/kg	12 mL/min/kg	1.4 h	0.6
CC(=O)NC(CS)C(=O)O (stereo not drawn)	3 h	0.55 L/kg	3.1 mL/min/kg	5.5 h	0.17
COC(=O)NC(C(=O)N1CCC[C@H]1c1ncc(-c2ccc(-c3ccc(-c4cnc([C@@H]5CCCN5C(=O)C(NC(=O)OC)C(C)C)[nH]4)cc3)cc2)[nH]1)C(C)C (stereo partly drawn)	11.2 h	0.67 L/kg	1 mL/min/kg	13.5 h	0.01
CC(=O)O[C@H]1C[C@@H]2CC[C@@H]3[C@H](CC[C@@]4(C)[C@H]3C[C@H]([N+]3(C)CCCCC3)[C@@H]4OC(C)=O)[C@@]2(C)C[C@@H]1N1CCCCC1	1.1 h	0.3 L/kg	4.5 mL/min/kg	1.4 h	0.25
OCCN1CCN(CCCN2c3ccccc3Sc3ccc(Cl)cc32)CC1	11 h	18 L/kg	27 mL/min/kg	9.4 h	0.07
CN(C)CCO[C@]1(c2ccccc2)C[C@H]2CC[C@]1(C)C2(C)C	26.6 h	7.7 L/kg	4.88 mL/min/kg	26.6 h	0.05
Cc1[nH]c(=O)c(C#N)cc1-c1ccc2nccn2c1	0.97 h	0.64 L/kg	11 mL/min/kg	1.13 h	
O=C(O)C1/C(=C/CO)O[C@@H]2CC(=O)N12 (stereo partly drawn)	1 h	0.22 L/kg	3.1 mL/min/kg	0.9 h	
CCCn1c(=O)c2[nH]c(C34CCC(CCC(=O)O)(CC3)CC4)nc2n(CCC)c1=O	11.7 h	0.76 L/kg	1.08 mL/min/kg	16 h	0.1

SMILES	MRT	Vd	clearance	half-life	fraction unbound
CN1C2CCC1CC(=C1c3ccccc3CSc3ccccc31)C2	39.5 h	11.8 L/kg	4.98 mL/min/kg	29.8 h	
CN(C)c1cc(CNCC(C)(C)C)c(O)c2c1C[C@H]1C[C@H]3[C@H](N(C)C)C(O)=C(C(N)=O)C(=O)[C@@]3(O)C(O)=C1C2=O	19.2 h	2.7 L/kg	2.34 mL/min/kg	15 h	
C=C(Br)C(=O)Nc1cc(C(=O)Nc2cc(C(=O)Nc3cc(C(=O)Nc4cc(C(=O)NCCN=C(N)N)n(C)c4)n(C)c3)n(C)c2)n(C)c1	1.2 h	0.36 L/kg	5.15 mL/min/kg	8.3 h	
Cn1c(=O)c2c(ncn2CC2OCCO2)n(C)c1=O	2.5 h	1.03 L/kg	6.83 mL/min/kg	1.66 h	
CCC/N=C1\S/C(=C\c2ccc(OC[C@H](O)CO)c(Cl)c2)C(=O)N1c1ccccc1C	42.6 h	2.28 L/kg	0.9 mL/min/kg	32.9 h	
CCC1=C[C@@H]2CN(CCc3c([nH]c4ccccc34)[C@@](C(=O)OC)(c3cc4c(cc3OC)N(C)[C@H]3[C@@](O)(C(=O)OC)[C@H](OC(C)=O)[C@]5(CC)C=CCN6CC[C@]43[C@@H]65)C2)C1	17 h	12 L/kg	12 mL/min/kg	18 h	
CC(C(=O)O)c1ccc(N2Cc3ccccc3C2=O)cc1 (stereo not drawn)	2.7 h	0.12 L/kg	0.65 mL/min/kg	2.11 h	0.01
COc1ccc2[nH]c3c(c2c1)CCN[C@]31CS[C@@H]2c3c(OC(C)=O)c(C)c4c(c3[C@H](COC1=O)N1[C@@H]2[C@H]2c3c(cc(C)c(OC)c3O)C[C@@H]([C@@H]1O)N2C)OCO4	44 h	7.3 L/kg	2.76 mL/min/kg	50.7 h	
CC(Oc1ccccc1)C(=O)NC1C(=O)N2C(C(=O)O)C(C)(C)S[C@H]12 (stereo partly drawn)	1.2 h	0.3 L/kg	4.2 mL/min/kg	0.91 h	0.25
CCN(CC)CCN1C(=O)c2c(c3c4cccc(Cl)c4n([C@@H]4O[C@H](CO)[C@@H](OC)[C@H](O)[C@H]4O)c3c3[nH]c4c(Cl)cccc4c23)C1=O	45.4 h	8.9 L/kg	3.13 mL/min/kg	48.9 h	
O=C(O)C1=C(CSc2nnnn2CS(=O)(=O)O)CS[C@@H]2C(NC(=O)C(O)c3ccccc3)C(=O)N12 (stereo partly drawn)	5.8 h	0.14 L/kg	0.38 mL/min/kg	5.1 h	0.02
O=C(O)CCCC[C@H]1CCSS1	0.13 h	0.11 L/kg	13.4 mL/min/kg	0.21 h	
CN(C)C1CCN(C(=O)c2ccc(NC(=O)Nc3ccc(-c4nc(N5CCOCC5)nc(N5CCOCC5)n4)cc3)cc2)CC1	17.6 h	2.39 L/kg	2.25 mL/min/kg	35.8 h	
Cc1ncc(CO)c(CO)c1O	1.38 h	0.66 L/kg	7.9 mL/min/kg	0.98 h	
CC(C(=O)O)c1cccc(Oc2ccccc2)c1 (stereo not drawn)	2.8 h	0.1 L/kg	0.6 mL/min/kg	2.24 h	0.02
Cc1nc2c([nH]1)-c1ccccc1N(C(=O)c1ccc(NC(=O)c3ccccc3-c3ccccc3)cc1)CC2	4.2 h	0.76 L/kg		6.7 h	
COc1cc2c(cc1O)CCN[C@]21CS[C@@H]2c3c(OC(C)=O)c(C)c4c(c3[C@H](COC1=O)N1[C@@H]2[C@H]2c3c(cc(C)c(OC)c3O)C[C@@H]([C@@H]1O)N2C)OCO4	35 h	25 L/kg	12 mL/min/kg	44 h	0.06
CC(C)C[C@H](NC(=O)CNC(=O)c1cc(Cl)ccc1Cl)B(O)O	119 h	3.61 L/kg	0.5 mL/min/kg	97 h	0.01
CCCC(=O)N1CCCN(c2nc(N)c3cc(OC)c(OC)cc3n2)CC1	2.5 h	0.72 L/kg	4.8 mL/min/kg	2 h	0.06
COc1ccc(C[C@@H]2c3cc(OC)c(OC)cc3CC[N@+]2(C)CCC(=O)OCCCCCOC(=O)CC[N@@+]2(C)CCc3cc(OC)c(OC)cc3[C@H]2Cc2ccc(OC)c(OC)c2)cc1OC	0.43 h	0.14 L/kg	5.4 mL/min/kg	0.42 h	0.62
CCCOC(C(=O)OC1CCN(C)CC1)(c1ccccc1)c1ccccc1	15.4 h	2.73 L/kg	2.94 mL/min/kg	15.2 h	0.1
COC(=O)C(c1ccccc1)[C@H]1CCCCN1 (stereo partly drawn)	6.62 h	2.65 L/kg	6.67 mL/min/kg	8 h	0.87

SMILES	MRT	Vd	clearance	half-life	fraction unbound
O[C@](CO[C@@H]1CN2CCC1CC2)(c1ccccc1)C1CCCC1	17.8 h	2.12 L/kg	1.99 mL/min/kg	15.7 h	
Nc1nc(OCc2cc(Br)cs2)c2[nH]cnc2n1			21.6 mL/min/kg	2.92 h	
CC(=O)N(O)CCCCCNC(=O)CCC(=O)N(O)CCCCCNC(=O)CCC(=O)N(O)CCCCCN	2.7 h	1.35 L/kg	8.33 mL/min/kg	3.05 h	
COc1ccsc1CNCC[C@@]1(c2ccccn2)CCOC2(CCCC2)C1	1.9 h	0.78 L/kg	6.89 mL/min/kg	1.8 h	
NC(=O)c1cc[n+](CC2=C(C(=O)O)N3C(=O)C(NC(=O)C(c4ccccc4)S(=O)(=O)[O-])[C@H]3SC2)cc1 (stereo partly drawn)	2.47 h	0.29 L/kg	1.96 mL/min/kg	1.64 h	
O=C(O)c1cc(/N=N/c2ccc(S(=O)(=O)Nc3ccccn3)cc2)ccc1O	6.8 h	0.11 L/kg	0.26 mL/min/kg	7.6 h	0.004
Nc1c(CC(=O)O)cccc1C(=O)c1ccc(Br)cc1	1.5 h	0.11 L/kg	1.3 mL/min/kg	2.6 h	0.0011
C#CCC(Cc1cnc2nc(N)nc(N)c2n1)c1ccc(C(=O)NC(CCC(=O)O)C(=O)O)cc1 (stereo not drawn)	3.7 h	1.01 L/kg	4.35 mL/min/kg	15 h	0.33
CC1C(=O)O[C@H]2[C@H](O)C34[C@H]5C[C@@H](C(C)(C)C)C36C(O)C(=O)O[C@H]6OC4(C(=O)O5)[C@@]12O (stereo partly drawn)	6.6 h	0.91 L/kg	2.3 mL/min/kg	5.2 h	0.8
COC1C(=O)C(C)C[C@H](C)C=CC=CC=C(C)[C@@H](OC)C[C@@H]2CC[C@@H](C)[C@@](O)(O2)C(=O)C(=O)N2CCCCC2C(=O)O[C@H]([C@H](C)C[C@@H]2CC[C@@H](OP(C)(C)=O)[C@H](OC)C2)CC(=O)C(C)=CC(C)[C@H]1O (stereo partly drawn)	48.5 h	3.2 L/kg	1.1 mL/min/kg	46.3 h	
FC(F)(F)C(F)(F)C(F)(F)F	0.05 h	1.6 L/kg	591 mL/min/kg	0.02 h	
CO[C@H]1/C=C/O[C@@]2(C)Oc3c(C)c(O)c4c(O)c(c(/C=N/N5CCN(C)CC5)c(O)c4c3C2=O)NC(=O)C(C)=CC=CC(C)[C@H](O)[C@@H](C)[C@@H](O)[C@@H](C)[C@H](OC(C)=O)[C@@H]1C (stereo partly drawn)	4.6 h	0.97 L/kg	3.5 mL/min/kg		
NC(Cc1c[nH]c2ccc(O)cc12)C(=O)O (stereo not drawn)	7.75 h	0.8 L/kg	1.72 mL/min/kg	6.14 h	
CCCCCCCCOCCOC(=O)CN(CC(=O)O)c1ccccc1OCCOc1ccccc1N(CC(=O)O)CC(=O)OCCOCCCCCCCC	1.3 h	1.1 L/kg	14 mL/min/kg	3.5 h	
COc1cc([S+](C)O)ccc1-c1nc2ncccc2[n-]1 (stereo not drawn)	1 h	0.62 L/kg	10 mL/min/kg	0.8 h	0.41
O=C(CCCN1CCC(n2c(=O)[nH]c3ccccc32)CC1)c1ccc(F)cc1	7.5 h	3.8 L/kg	8.3 mL/min/kg	5.8 h	
CCCC(=O)Nc1ccc(OCC(O)CNC(C)C)c(C(C)=O)c1 (stereo not drawn)	2.8 h	1.7 L/kg		3.5 h	
Nc1n[n+]([O-])c2ccccc2[n+]1[O-]					0.81
CN(C)CC(Oc1ccccc1)Oc1ccccc1	3.4 h	2.8 L/kg	13.7 mL/min/kg	4.4 h	
CCN(CC)CC(=O)Nc1c(C)cccc1C	1.9 h				
CN(C)CCn1nnnc1SCC1=C(C(=O)O)N2C(=O)C(NC(=O)Cc3csc(N)n3)[C@H]2SC1 (stereo partly drawn)	0.76 h	0.26 L/kg	5.8 mL/min/kg	0.84 h	0.5
CCC(C)CC(C)CCCCCCCCC(=O)NC1CC(O)C(NCCN)NC(=O)C2C(O)CCN2C(=O)C(C(O)CCN)NC(=O)C(C(O)C(O)c2ccc(O)cc2)NC(=O)C2CC(O)CN2C(=O)C(C(C)O)NC1=O (stereo not drawn)					0.035
